Source: patent publication US20130129675A1, “INTERFERON THERAPIES IN COMBINATION WITH BLOCKADE OF STAT3 ACTIVATION” (BOARD OF REGENTS, THE UNIVERSITY OF TEXAS SYSTEM, priority 2009, published 2013)

Assays:
[1] = test system: p-STAT3 (Tyr705) in splenocytes; assay: p-STAT3 immunoblotting in splenocytes; format: cell-based, C57BL/6J mice; details: 2 hours, 5 and 10 μM (FIG. 3B)
Method: Immunoblotting analysis. Murine melanoma B16 cells and splenocytes were used for protein isolation and immunoblotting analysis as described below. B16 cells were seeded at a density of 2×10^6 cells/well in 6-well culture plates and incubated at 37° C., in an atmosphere containing 5% CO2, with the RPMI 1640 medium overnight. Afterward, B16 cells were cultured in the absence or presence of WP1193 (5 μM, 10 μM). After 3.5 hours, the B16 cells were further cultured in the absence or presence of 20 ng/ml of IFN-α for 30 minutes. For the splenocyte preparation, spleens from two 4- to 6-week-old female mice were harvested and disassociated into a single cell suspension. […] The supernatants were collected and quantified for protein content. […]
Autoradiography of the membranes was performed using Amersham ECL Western blotting detection reagents (Amersham Biosciences). The densities of the protein bands compared with the β-actin protein control were measured with the Image J program provided by the NIH.
In this experiment, B16 cells and splenocytes isolated from C57BL/6J mice and were incubated with either the medium, medium supplemented with titrated WP1193, medium supplemented with IFN-α, or medium supplemented with both IFN-α and WP1193. […] Semi-quantitative densitometry was used to determine the relative levels of p-STAT3 to STAT3 and β-actin.

[2] = test system: STAT3 in HaCaT keratinocytes; assay: pSTAT3 level in HaCaT keratinocytes (MSD chemiluminescent detection); format: cell-based, human
Method: Prior to experiments, the DMEM medium was changed to KGM-SFM containing rEGF and bovine pituitary extract for 12 hours, and the cells then exposed to various stimuli for 30 minutes. Cell lysates were extracted in IP lysis buffer were diluted in MSD extraction buffer and 25 uL of the cell lysate containing 10 ug protein was used in the analysis via chemiluminescent detection (MSD Technology). To test for inhibition by WP1220 (WP), cells were pre-incubated with WP1220 prior to the addition of IFN α.

melanoma = details: cited from earlier work
[3] = cited from earlier work

Compound | phosphorylation of p-STAT3 [1] | STAT3 activation in keratinocytes [2] | Relative level of pSAT3 ([2]; HaCaT cells, stimuli for 30 minutes) | pSTAT3 stimulation (Table E8) ([2]; SFM + IFN α, no inhibitor) | reduction in the relative relapse risk (melanoma; high-dose type I IFN-α, stage II and III melanoma, adjuvant trials) | melanoma patients with an objective response (melanoma; human, in vivo) | duration of sustained in vivo expression ([3]; after administration of plasmid) | serum level of IFN-α ([3]; single i.v. hydrodynamic injection of 3 μg pORF plasmid encoding murine IFN-α)
N#C/C(=C\c1cccc(Br)n1)C(=O)N[C@H](c1ccccc1)C1CC1 [WP1193, (S,E)-3-(6-bromopyridin-2-yl)-2-cyano-N-(cyclopropyl(phenyl)methyl)acrylamide] | inhibits the phosphorylation of p-STAT3 |  |  |  |  |  |  | 
IFN-α |  | potently induce STAT3 activation | +++++ (+++++=400-500 fold) | +++++ (+++++=10,000-6,000) | 25-33% | 15% | more than 30 days | 900 pg/mL
